Test results taken from the supplement of paper PMC10307832.

Key:
Experiment in all cases: relative viability (nuclei count vs DMSO), 5 days (fraction); higher = more cells survive
Bleomycin + Navitoclax = compound: CC1=C(N=C(N=C1N)[C@H](CC(=O)N)NC[C@@H](C(=O)N)N)C(=O)N[C@@H]([C@H](C2=CN=CN2)OC3C(C(C(C(O3)CO)O)O)OC4C(C(C(C(O4)CO)O)OC(=O)N)O)C(=O)N[C@H](C)[C@H]([C@H](C)C(=O)N[C@@H]([C@@H](C)O)C(=O)NCCC5=NC(=CS5)C6=NC(=CS6)C(=O)NCCC[S+](C)C)O [Bleomycin] + CC1(C)CCC(c2ccc(Cl)cc2)=C(CN2CCN(c3ccc(C(=O)NS(=O)(=O)c4ccc(N[C@H](CCN5CCOCC5)CSc5ccccc5)c(S(=O)(=O)C(F)(F)F)c4)cc3)CC2)C1 [Navitoclax] (partner 0.5 µM); conditions: main component drawn
How it was run: (§1)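 Relative viability is defined as nuclei in treated wells over nuclei in vehicle wells. Duplicate plates were run and medians reported. Lung cancer cell lines in 1536-well plates were dosed by pin tool one day after seeding, with one drug or with a fixed anchor-drug dose plus five library-drug doses (not always all listed) in √10 steps, and nuclei were counted after 5 days.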

Bleomycin + Phenformin = compound: CC1=C(N=C(N=C1N)[C@H](CC(=O)N)NC[C@@H](C(=O)N)N)C(=O)N[C@@H]([C@H](C2=CN=CN2)OC3C(C(C(C(O3)CO)O)O)OC4C(C(C(C(O4)CO)O)OC(=O)N)O)C(=O)N[C@H](C)[C@H]([C@H](C)C(=O)N[C@@H]([C@@H](C)O)C(=O)NCCC5=NC(=CS5)C6=NC(=CS6)C(=O)NCCC[S+](C)C)O [Bleomycin] + N=C(N)NC(=N)NCCc1ccccc1 [Phenformin] (partner 250 µM); conditions: main component drawn
How it was run: as §1

Etoposide + Luminespib = compound: COc1cc([C@@H]2c3cc4c(cc3[C@@H](O[C@@H]3O[C@@H]5CO[C@@H](C)O[C@H]5[C@H](O)[C@H]3O)[C@H]3COC(=O)[C@H]23)OCO4)cc(OC)c1O [Etoposide] + CCNC(=O)c1noc(-c2cc(C(C)C)c(O)cc2O)c1-c1ccc(CN2CCOCC2)cc1 [Luminespib] (partner 0.01 µM)
How it was run: as §1

Etoposide + Alpelisib = compound: COc1cc([C@@H]2c3cc4c(cc3[C@@H](O[C@@H]3O[C@@H]5CO[C@@H](C)O[C@H]5[C@H](O)[C@H]3O)[C@H]3COC(=O)[C@H]23)OCO4)cc(OC)c1O [Etoposide] + Cc1nc(NC(=O)N2CCC[C@H]2C(N)=O)sc1-c1ccnc(C(C)(C)C(F)(F)F)c1 [Alpelisib] (partner 2 µM)
How it was run: as §1

| Cell Line | relative viability (Bleomycin + Navitoclax; first compound 0.01 µM) | relative viability (Bleomycin + Navitoclax; first compound 0.03162 µM) | relative viability (Bleomycin + Navitoclax; first compound 0.1 µM) | relative viability (Bleomycin + Navitoclax; first compound 0.3162 µM) | relative viability (Bleomycin + Navitoclax; first compound 1 µM) | relative viability (Bleomycin + Phenformin; first compound 0.01 µM) | relative viability (Bleomycin + Phenformin; first compound 0.03162 µM) | relative viability (Bleomycin + Phenformin; first compound 0.1 µM) | relative viability (Bleomycin + Phenformin; first compound 0.3162 µM) | relative viability (Bleomycin + Phenformin; first compound 1 µM) | relative viability (Etoposide + Luminespib; first compound 0.01 µM) | relative viability (Etoposide + Luminespib; first compound 0.03162 µM) | relative viability (Etoposide + Luminespib; first compound 0.1 µM) | relative viability (Etoposide + Luminespib; first compound 0.3162 µM) | relative viability (Etoposide + Luminespib; first compound 1 µM) | relative viability (Etoposide + Alpelisib; first compound 0.03162 µM) | relative viability (Etoposide + Alpelisib; first compound 0.1 µM) | relative viability (Etoposide + Alpelisib; first compound 0.3162 µM) | relative viability (Etoposide + Alpelisib; first compound 1 µM) | relative viability (Etoposide + Alpelisib; first compound 0.01 µM) |
| --- | --- | --- | --- | --- | --- | --- | --- | --- | --- | --- | --- | --- | --- | --- | --- | --- | --- | --- | --- | --- |
| LCLC-97TM1 | 0.191 | 0.197 | 0.102 | 0.152 | 0.1 | 0.337 | 0.401 | 0.241 | 0.192 | 0.173 | 0.788 | 0.78 | 0.465 | 0.175 | 0.154 | 0.309 | 0.132 | 0.139 | 0.107 |  |
| LK-2 | 0.478 | 0.537 | 0.415 | 0.214 | 0.239 | 0.289 | 0.281 | 0.304 | 0.23 | 0.16 | 0.206 | 0.181 | 0.154 | 0.195 | 0.159 | 1.12 | 0.71 | 0.764 | 0.288 | 1.01 |
| LOU-NH91 | 0.553 | 0.437 | 0.362 | 0.266 | 0.199 | 0.686 | 0.488 | 0.515 | 0.383 | 0.343 | 0.318 | 0.38 | 0.306 | 0.311 | 0.284 | 0.744 | 0.593 | 0.62 | 0.469 | 0.7 |
| LU99A | 0.622 | 0.491 | 0.335 | 0.166 | 0.147 | 0.636 | 0.827 | 0.673 | 0.33 | 0.159 | 0.279 | 0.255 | 0.246 | 0.22 | 0.217 | 0.629 | 0.331 | 0.24 | 0.143 | 0.522 |
| LXF-289 | 0.877 | 0.879 | 0.799 | 0.35 | 0.179 | 0.471 | 0.477 | 0.446 | 0.174 | 0.0704 | 0.569 | 0.861 | 0.79 | 0.367 | 0.129 | 1.07 | 1.04 | 0.655 | 0.244 | 1.02 |
| NCI-H23 | 0.47 | 0.284 | 0.276 | 0.155 | 0.181 | 0.518 | 0.586 | 0.357 | 0.207 | 0.17 | 0.23 | 0.204 | 0.207 | 0.212 | 0.246 | 0.654 | 0.358 | 0.364 | 0.236 | 0.578 |
| NCI-H322M | 1.13 | 1.36 | 1.36 | 1.28 | 0.597 | 0.655 | 0.74 | 0.72 | 0.377 | 0.353 | 0.789 | 0.846 | 0.553 | 0.486 | 0.392 | 0.786 | 0.663 | 0.658 | 0.472 | 0.712 |
| NCI-H441 |  | 0.733 | 0.574 | 0.389 | 0.339 | 0.782 | 0.906 | 0.807 | 0.376 | 0.292 | 0.307 | 0.28 | 0.331 | 0.259 | 0.256 | 0.722 | 0.362 | 0.16 | 0.174 | 0.473 |
| NCI-H460 | 0.343 | 0.465 | 0.0823 | 0.0158 | 0.0206 | 0.287 | 0.275 | 0.124 | 0.0345 | 0.0288 | 0.0412 | 0.0382 | 0.0395 | 0.0281 | 0.0302 | 0.355 | 0.272 | 0.0559 | 0.0284 | 0.479 |
| NCI-H520 | 0.858 | 0.957 | 1.1 | 0.927 | 0.656 | 0.315 | 0.577 | 0.4 | 0.279 | 0.35 | 0.204 | 0.198 |  | 0.218 | 0.219 | 0.925 | 0.965 | 0.836 | 0.906 | 0.873 |
| NCI-H596 | 0.648 | 0.534 | 0.312 | 0.276 | 0.305 | 0.673 | 0.728 | 0.635 | 0.343 | 0.366 | 1.01 | 0.883 | 0.986 | 0.771 | 0.681 | 0.491 |  | 0.457 | 0.425 | 0.383 |
| NCI-H647 | 0.408 | 0.263 | 0.203 | 0.0968 | 0.0761 | 0.209 | 0.207 | 0.148 | 0.078 | 0.0537 | 0.134 | 0.164 | 0.164 | 0.134 | 0.0949 | 1.22 | 1.02 | 0.429 | 0.125 | 1.19 |
| NCI-H727 | 0.388 | 0.339 | 0.351 | 0.181 | 0.286 | 0.65 | 0.621 | 0.469 |  | 0.502 | 0.53 | 0.294 |  | 0.3 | 0.418 | 0.524 | 0.566 | 0.58 | 0.423 | 0.616 |
| NCI-H838 | 0.768 | 0.403 | 0.274 | 0.19 | 0.172 | 0.381 | 0.297 | 0.185 | 0.188 | 0.153 | 0.394 | 0.31 | 0.272 | 0.162 | 0.194 | 1.08 | 0.887 | 0.666 | 0.387 | 0.951 |
| NCI-H1355 | 1.01 | 0.947 | 0.913 | 0.565 | 0.328 | 0.432 | 0.487 | 0.429 | 0.27 | 0.194 | 0.635 | 0.765 | 0.403 | 0.338 | 0.201 | 0.969 | 0.343 | 0.53 | 0.304 | 0.811 |
